Like-named read-outs stand apart in the source and are kept apart here. One block for each compound: values may come before it.
System: TGF-β signaling (PAI-1 promoter-luciferase in HepG2 cells)
Assay: Assay 1: PAI-1 promoter luciferase reporter assay in HepG2 cells exposed to TGF-β
Procedure: The assay was performed in HepG2 cells stably transfected with the PAI-1 promoter (known to be a strong TGF-β responsive promoter) linked to a luciferase (firefly) reporter gene. The compounds were selected on their ability to inhibit luciferase activity in cells exposed to TGF-β. In addition cells were transfected with a second luciferase (Renilla) gene which was not driven by a TGF-β responsive promoter and was used as a toxicity control.
(96 well) microplates are seeded, using a multidrop apparatus, with the stably transfected cell line at a concentration of 35000 cells per well in 200 μl of serum-containing medium. These plates are placed in a cell incubator.
18 to 24 hours later (Day 2), cell-incubation procedure is launched. Cells are incubated with TGF-β and a candidate compound at concentrations in the range 50 nM to 10 μM (final concentration of DMSO 1%). The final concentration of TGF-β (rhTGFβ-1) used in the test is 1 ng/mL. […] The final volume of the test reaction is 150 μl. Each well contains only one candidate compound and its effect on the PAI-1 promoter is monitored.
Columns 11 and 12 are employed as controls. Column 11 contains 8 wells in which the cells are incubated in the presence of TGF-β, without a candidate compound. Column 11 is used to determine the ‘reference TGF-β induced firefly luciferase value’ against which values measured in the test wells (to quantify inhibitory activity) may be compared. In wells A12 to D12, cells are grown in medium without TGF-β. […]
12 to 18 hours later (day 3), the luciferase quantification procedure is launched. […] Following agitation (15 to 30 mins), luciferase activities of the plates are read in a dual-injector luminometer (BMG lumistar). For this purpose, 50 μl of luciferase assay reagent and 50 μl of ‘Stop & Glo’ buffer are injected sequentially to quantify the activities of both luciferases. […] For each of the compounds tested, a concentration response curve is constructed from which an IC50 value can be determined graphically.

SMILES: O=C1C=CCC1 [CPO, Cyclopentenone, reference compound]
firefly and renilla luciferase activities relative to those obtained in column 11 (TGF-β only) (500 μM CPO in presence of TGF-β, toxicity control wells E12 to H12): around 50%

IC50 (Homo sapiens, HepG2, read-out: IC50 value in Assay 1 (inhibition of TGF-β induced firefly luciferase activity)): ~50 nM
SMILES: c1ccc(-c2n[nH]cc2-c2ccc3ncccc3n2)nc1 [Example 1, 2-(3-Pyridin-2-yl-1H-pyrazol-4-yl)-1,5-naphthyridine]

IC50 (read-out: IC50 value in Assay 1 (inhibition of TGF-β induced firefly luciferase activity), HepG2 cells stably transfected with PAI-1 promoter-luciferase, rhTGFβ-1 1 ng/mL, 1% DMSO): ~50 nM
SMILES: Cc1cccc(-c2n[nH]cc2-c2ccc3ncccc3n2)n1 [Example 2]

Reference: patent publication US20040063949A1, “Compounds” (priority 2001, published 2004)
